Test system: 958667-338-R-J2-PDC tumor spheroids viability
Test: Anticancer human tumor 958667-338-R-J2-PDC patient-derived colon adenocarcinoma cell line growth inhibition [PI3K]
Conditions: spheroids with HUVEC and MSC; for IC50: curve of first compound; for viability, T/C: stronger effect = lower value
Procedure, shortened: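 Tumor cells were combined with HUVEC and MSCs into spheroids, then dosed with PI3K-inhibitor combinations over half-log ranges capped near clinical Cmax or 10 microM.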

[1] = second compound 0.00316 µM, first compound 0.0316 µM
[2] = second compound 0.00316 µM, first compound 0.1 µM
[3] = second compound 0.01 µM, first compound 0.0316 µM
[4] = second compound 0.01 µM, first compound 0.1 µM
[5] = second compound 0.0316 µM, first compound 0.0316 µM
[6] = second compound 0.0316 µM, first compound 0.1 µM
[7] = second compound 0.1 µM, first compound 0.0316 µM
[8] = second compound 0.1 µM, first compound 0.1 µM
[9] = second compound 0.316 µM, first compound 0.0316 µM
[10] = second compound 0.316 µM, first compound 0.1 µM
[11] = second compound 1 µM, first compound 0.0316 µM
[12] = second compound 1 µM, first compound 0.1 µM
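Also: spheroids exposed to compounds for seven days before readout.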

CC(C)NCC(C(=O)N1CCN(c2ncnc3c2C(C)CC3O)CC1)c1ccc(Cl)cc1 (centres undefined) + COc1c(OCCCN2CCOCC2)ccc2c3n(c(=NC(=O)c4cnc(N)nc4)nc12)CCN3
IC50 (second compound 0.00316 µM): > 10 µM
IC50 (second compound 0.01 µM): > 10 µM
IC50 (second compound 0.0316 µM): > 10 µM
IC50 (second compound 0.1 µM): 4.02 µM
IC50 (second compound 0.316 µM): < 0.0316 µM
IC50 (second compound 1 µM): < 0.0316 µM
viability, T/C [1]: 94.4%
viability, T/C [2]: 88%
viability, T/C (second compound 0.00316 µM, first compound 0.316 µM): 74%
viability, T/C (second compound 0.00316 µM, first compound 1 µM): 95.7%
viability, T/C (second compound 0.00316 µM, first compound 3.16 µM): 90.7%
viability, T/C (second compound 0.00316 µM, first compound 10 µM): 60.2%
viability, T/C [3]: 97.8%
viability, T/C [4]: 73.9%
viability, T/C (second compound 0.01 µM, first compound 0.316 µM): 69%
viability, T/C (second compound 0.01 µM, first compound 1 µM): 100%
viability, T/C (second compound 0.01 µM, first compound 3.16 µM): 54.8%
viability, T/C (second compound 0.01 µM, first compound 10 µM): 66.2%
viability, T/C [5]: 68.7%
viability, T/C [6]: 69.3%
viability, T/C (second compound 0.0316 µM, first compound 0.316 µM): 67.8%
viability, T/C (second compound 0.0316 µM, first compound 1 µM): 77.7%
viability, T/C (second compound 0.0316 µM, first compound 3.16 µM): 71.3%
viability, T/C (second compound 0.0316 µM, first compound 10 µM): 50.6%
viability, T/C [7]: 61.6%
viability, T/C [8]: 43.2%
viability, T/C (second compound 0.1 µM, first compound 0.316 µM): 67.4%
viability, T/C (second compound 0.1 µM, first compound 1 µM): 60.5%
viability, T/C (second compound 0.1 µM, first compound 3.16 µM): 51.1%
viability, T/C (second compound 0.1 µM, first compound 10 µM): 37.4%
viability, T/C [9]: 36.9%
viability, T/C [10]: 35.3%
viability, T/C (second compound 0.316 µM, first compound 0.316 µM): 29.8%
viability, T/C (second compound 0.316 µM, first compound 1 µM): 38.1%
viability, T/C (second compound 0.316 µM, first compound 3.16 µM): 27.2%
viability, T/C (second compound 0.316 µM, first compound 10 µM): 23.1%
viability, T/C [11]: 17.6%
viability, T/C [12]: 18.7%
viability, T/C (second compound 1 µM, first compound 0.316 µM): 15.4%
viability, T/C (second compound 1 µM, first compound 1 µM): 19.5%
viability, T/C (second compound 1 µM, first compound 3.16 µM): 16.2%
viability, T/C (second compound 1 µM, first compound 10 µM): 14.8%

Cn1ncnc1[C@H]1c2n[nH]c(=O)c3cc(F)cc(c23)N[C@@H]1c1ccc(F)cc1 + COc1c(OCCCN2CCOCC2)ccc2c3n(c(=NC(=O)c4cnc(N)nc4)nc12)CCN3
IC50 (second compound 0.00316 µM): > 0.1 µM
IC50 (second compound 0.01 µM): > 0.1 µM
IC50 (second compound 0.0316 µM): > 0.1 µM
IC50 (second compound 0.1 µM): > 0.1 µM
IC50 (second compound 0.316 µM): < 0.000316 µM
IC50 (second compound 1 µM): < 0.000316 µM
viability, T/C (second compound 0.00316 µM, first compound 0.000316 µM): 96.3%
viability, T/C (second compound 0.00316 µM, first compound 0.001 µM): 104%
viability, T/C (second compound 0.00316 µM, first compound 0.00316 µM): 93.6%
viability, T/C (second compound 0.00316 µM, first compound 0.01 µM): 102%
viability, T/C [1]: 87.8%
viability, T/C [2]: 75.8%
viability, T/C (second compound 0.01 µM, first compound 0.000316 µM): 76.3%
viability, T/C (second compound 0.01 µM, first compound 0.001 µM): 72.5%
viability, T/C (second compound 0.01 µM, first compound 0.00316 µM): 94.2%
viability, T/C (second compound 0.01 µM, first compound 0.01 µM): 90.7%
viability, T/C [3]: 80.5%
viability, T/C [4]: 87.3%
viability, T/C (second compound 0.0316 µM, first compound 0.000316 µM): 69.4%
viability, T/C (second compound 0.0316 µM, first compound 0.001 µM): 74.4%
viability, T/C (second compound 0.0316 µM, first compound 0.00316 µM): 98.4%
viability, T/C (second compound 0.0316 µM, first compound 0.01 µM): 79.2%
viability, T/C [5]: 79.8%
viability, T/C [6]: 61.9%
viability, T/C (second compound 0.1 µM, first compound 0.000316 µM): 62%
viability, T/C (second compound 0.1 µM, first compound 0.001 µM): 61.7%
viability, T/C (second compound 0.1 µM, first compound 0.00316 µM): 59.6%
viability, T/C (second compound 0.1 µM, first compound 0.01 µM): 66.8%
viability, T/C [7]: 57.3%
viability, T/C [8]: 56%
viability, T/C (second compound 0.316 µM, first compound 0.000316 µM): 37%
viability, T/C (second compound 0.316 µM, first compound 0.001 µM): 38%
viability, T/C (second compound 0.316 µM, first compound 0.00316 µM): 43.8%
viability, T/C (second compound 0.316 µM, first compound 0.01 µM): 46.1%
viability, T/C [9]: 34.9%
viability, T/C [10]: 34.9%
viability, T/C (second compound 1 µM, first compound 0.000316 µM): 19.7%
viability, T/C (second compound 1 µM, first compound 0.001 µM): 15.6%
viability, T/C (second compound 1 µM, first compound 0.00316 µM): 21.7%
viability, T/C (second compound 1 µM, first compound 0.01 µM): 21.1%
viability, T/C [11]: 22.5%
viability, T/C [12]: 14.9%

— PubChem BioAssay AID1963963 (Molecular Pharmacology Branch, DTP, NCI, 2024)
